Measured values as given in US10604512B2, “3-(1H-indol-2-yl)-1H-indazoles and therapeutic uses thereof” (Samumed, LLC, priority 2015, dated 2020).

Assays:
Type in all cases: cell-based
[1] = tested on: SW480 colon cancer cells; test: Cell viability assay (CellTiter-Blue) in SW480 colon cancer cells; conditions: Homo sapiens, 96 h, four days; for EC50: CellTiter-Blue; for inhibition at 10 µM: given where EC50 >10 μM, read-out: percent inhibition at 10 μM
Summary of the method: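 SW480 colon cancer cells (~2×10^3/well) exposed to 8-point 1:3 dilutions from 10 μM to 0.0045 μM for four days at 37 °C/5% CO2. Viability read by resazurin (CellTiter-Blue) fluorescence after ~3 h, Ex 560/Em 590 nm. EC50 from non-linear regression; percent inhibition at 10 μM given when EC50 >10 μM.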

[2] = tested on: Primary human fibroblasts derived from IPF patients (LL29 cells) treated with TGF-β1; test: Inhibition of the fibrotic process: αSMA staining in TGF-β1-treated primary human fibroblasts from IPF patients (LL29 cells); conditions: Fibroblast, 96 h; for EC50: % αSMA-positive LL29 cells, TGF-β1 20 ng/mL, 4 days
Summary of the method: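 LL29 IPF-patient fibroblasts in 1% FBS stimulated with TGF-β1 (20 ng/mL) and compound (10 μM–1.87 nM, 0.1% DMSO) for 4 days at 37 °C. SYTOX-positive cells excluded; % αSMA-positive cells imaged, normalized to TGF-β1/DMSO wells; EC50 by nonlinear regression, else % inhibition at 10 μM.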

[3] = tested on: IL-6; test: Inhibition of IL-6 in LPS-stimulated THP-1 human monocyte cells (HTRF); conditions: for EC50: IL-6 inhibition, LPS-stimulated THP-1 cells, HTRF; for inhibition at 10 µM: THP-1, printed beside >10 μM EC50, top concentration 10 μM, meaning not given, read-out: percentage in parentheses after EC50 >10
Summary of the method: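 THP-1 cells serum-reduced (1% FBS, 24 h), then 5000 cells/well preincubated 2 h with compound (10-point 1:3 series from 10 μM, 0.1% DMSO) before 500 ng/mL LPS for 22 h at 37 °C. Secreted IL-6 quantified by HTRF 665/620 ratio; DMSO-normalised duplicates fitted to four-parameter EC50; above 10 μM, % inhibition at 10 μM given.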

| Structure (SMILES) | EC50 [1] [µM] | EC50 [3] [nM] | EC50 [2] [µM] | inhibition at 10 µM ([2]; at 10 μM, given where EC50 >10 μM, αSMA, LL29 cells, TGF-β1, 4 days, read-out: percent inhibition at 10 μM) [%] | inhibition at 10 µM [3] [%] | inhibition at 10 µM [1] [%] |
| --- | --- | --- | --- | --- | --- | --- |
| CC(C)(C)CC(=O)Nc1cncc(-c2ccc3[nH]nc(-c4cc5c(-c6ccsc6)cccc5[nH]4)c3c2)c1 [Compound 296, 3,3-Dimethyl-N-(5-(3-(4-(thiophen-3-yl)-1H-indol-2-yl)-1H-indazol-5-yl)pyridin-3-yl)butanamide] | 0.97 | > 10000 | > 10 | 21 | 31.6 |  |
| O=C(Cc1ccccc1)Nc1cncc(-c2ccc3[nH]nc(-c4cc5c(-c6ccoc6)cccc5[nH]4)c3c2)c1 [Compound 318, N-(5-(3-(4-(Furan-3-yl)-1H-indol-2-yl)-1H-indazol-5-yl)pyridin-3-yl)-2-phenylacetamide] | > 10 | 304 | 0.844 |  |  | 31.9 |
| O=C(Nc1cncc(-c2ccc3[nH]nc(-c4cc5c(-c6ccsc6)cccc5[nH]4)c3c2)c1)C1CCCCC1 [Compound 303, N-(5-(3-(4-(Thiophen-3-yl)-1H-indol-2-yl)-1H-indazol-5-yl)pyridin-3-yl) cyclohexanecarboxamide] | > 10 | > 10000 | 2.79 |  | 43.9 | 15 |
| Fc1cccc(-c2cccc3[nH]c(-c4n[nH]c5ccc(-c6ccncc6)cc45)cc23)c1 [Compound 18, 3-(4-(3-Fluorophenyl)-1H-indol-2-yl)-5-(pyridin-4-yl)-1H-indazole] | > 10 | 31 | 5.55 |  |  | 10.2 |

Further lines, with some results ahead:

| EC50 [1] [µM] | EC50 [3] [nM] | Structure (SMILES) | EC50 [2] [µM] | inhibition at 10 µM ([2]; at 10 μM, given where EC50 >10 μM, αSMA, LL29 cells, TGF-β1, 4 days, read-out: percent inhibition at 10 μM) [%] | inhibition at 10 µM [3] [%] | inhibition at 10 µM [1] [%] |
| --- | --- | --- | --- | --- | --- | --- |
| > 10 | 7580 | c1cc(-c2ccoc2)c2cc(-c3n[nH]c4ccc(-c5cncc(CNCC6CCCC6)c5)cc34)[nH]c2c1 [Compound 333, 1-Cyclopentyl-N-((5-(3-(4-(furan-3-yl)-1H-indol-2-yl)-1H-indazol-5-yl)pyridin-3-yl)methyl)methanamine] | 3.74 |  |  | 19.1 |
| 0.294 | 519 | Nc1cncc(-c2ccc3[nH]nc(-c4cc5c(-c6ccoc6)cccc5[nH]4)c3c2)c1 [Compound 311, 5-(3-(4-(Furan-3-yl)-1H-indol-2-yl)-1H-indazol-5-yl)pyridin-3-amine] | 5.04 |  |  |  |
